Values after ≈ are worked out from the molar mass of the structure shown.
Test system: T3565 cultured glioma stem cell
Assay: MTS assay of valproic acid on glioma stem cell viability
Type: cell-based
Settings: T3565 cells, varying concentrations
Source text: In vitro testing of valproic acid on glioma stem cell and non-stem cells.

IC50: 600 µg/mL (≈ 4.16 mM)
SMILES: CCCC(CCC)C(=O)O [valproic acid]

Source: patent publication US20190290769A1, “Hydrogel Compositions” (The Trustees of the University of Pennsylvania, priority 2018, published 2019)
